These results are taken from US20020128256A1, “Methods for the treatment or prevention of inflammatory diseases characterized by abnormal cell proliferation” (priority 1997, published 2002).

Series [1] deals with NIH 3T3 mouse fibroblast cells. Nature of the series: Mitogenic Assay (mitogen-induced cell proliferation). The series is classed as cell-based.
Series [2] addresses T1, Gardos channel of erythrocytes (Homo sapiens, UniProt O15554).
T1 construct: endogenous in cells; host or cells: erythrocytes
As to the kind of experiment: Gardos Channel Assay. It is filed as cell-based.

Series [3] concerns HeLa. As to the kind of experiment: SRB antiproliferative assay, HeLa. The series is classed as cell-based. The note with it: read-out: SRB assay IC50. For orientation: Sulforhodamine B stains cellular protein and so reports cell mass.
Procedure: (§1) The antiproliferative assays described herein were performed using standard aseptic procedures and universal precautions for the use of tissues. Cells were propagated using RPMI 1640 media (Gibco) containing 2% N 5% fetal calf serum (Biowhittaker) at 37° C., 5% CO2 and 95% humidity. The cells were passaged using Trypsin (Gibco). Prior to addition of test compound, the cells were harvested, the cell number counted and seeded at 10,000 cells/well in 100 μl 5% fetal calf serum (FCS) containing RPMI medium in 96-well plates and incubated overnight at 37° C., 5% CO2 and 95% humidity.
(§2) Following incubation, the cellular protein was determined with the ulforhodamine B (SRB) assay (Skehan P et al., 1990, J. Natl. Cancer Inst. 82:1107-1112).
The subject of series [4] is CaSki. Nature of the series: SRB antiproliferative assay, CaSki. The note with it: read-out: SRB assay IC50. The series is classed as cell-based.
Procedure: as §1, §2
The subject of series [5] is MDA-MB-231. As to the kind of experiment: SRB antiproliferative assay, MDA-MB-231. It is filed as cell-based. The note with it: read-out: SRB assay IC50.
Series [6] has as its system MCF7. Nature of the series: SRB antiproliferative assay, MCF7. It is filed as cell-based.
Procedure: as §1, §2
In series [7] the test system is A549. As to the kind of experiment: SRB antiproliferative assay, A549. It is filed as cell-based.
Procedure: as §1, §2
Series [8] relates to HTB174. As to the kind of experiment: SRB antiproliferative assay, HTB174. The note with it: read-out: SRB assay IC50. It is filed as cell-based.
Procedure: as §1, §2
Series [9] relates to HEPG2. Nature of the series: SRB antiproliferative assay, HEPG2. It is filed as cell-based.
Procedure: as §1, §2
Series [10] concerns DU-145. Nature of the series: SRB antiproliferative assay, DU-145. It is filed as cell-based. Particulars: read-out: SRB assay IC50.
Procedure: as §1, §2
Series [11] concerns SK-MEL-28. Nature of the series: SRB antiproliferative assay, SK-MEL-28. It is filed as cell-based. The note with it: read-out: SRB assay IC50.
Procedure: as §1, §2
For series [12], the system named is MMRU. Nature of the series: SRB antiproliferative assay, MMRU. The series is classed as cell-based, human.
Procedure: Cells were propagated using RPMI 1640 media (Gibco) containing 2% N 5% fetal calf serum (Biowhittaker) at 37° C., 5% CO2 and 95% humidity. The cells were passaged using Trypsin (Gibco). Prior to addition of test compound, the cells were harvested, the cell number counted and seeded at 10,000 cells/well in 100 μl 5% fetal calf serum (FCS) containing RPMI medium in 96-well plates and incubated overnight at 37° C., 5% CO2 and 95% humidity.
as §2
Series [13] deals with HT29. Nature of the series: SRB antiproliferative assay, HT29. The series is classed as cell-based.
Procedure: as §1, §2
The test system of series [14] is HCT-15. Nature of the series: SRB antiproliferative assay, HCT-15. The series is classed as cell-based. Particulars: read-out: SRB assay IC50.
Procedure: as §1, §2
In series [15] the test system is ACHN. Nature of the series: SRB antiproliferative assay, ACHN. The series is classed as cell-based. The note with it: read-out: SRB assay IC50.
Procedure: as §1, §2
The subject of series [16] is U118MG. Nature of the series: SRB antiproliferative assay, U118MG. It is filed as cell-based.
Procedure: as §1, §2
The test system of series [17] is SK-OV-3. As to the kind of experiment: SRB antiproliferative assay, SK-OV-3. The series is classed as cell-based. The note with it: SK-OV-3 (Ovary); 5% FCS, 5 Day Incubation.
Procedure: as §1, §2
The subject of series [18] is HUVEC. Nature of the series: SRB assay, normal cells HUVEC. The series is classed as cell-based, human. Particulars: read-out: SRB assay IC50.
Procedure: as §1, §2
Series [19] concerns GM. As to the kind of experiment: SRB assay, normal cells GM. It is filed as cell-based, human. The note with it: read-out: SRB assay IC50.
Procedure: as §1, §2
The test system of series [20] is 3T3. Nature of the series: SRB assay, normal cells 3T3. The series is classed as cell-based, mouse. Particulars: read-out: SRB assay IC50.
Procedure: as §1, §2
The test system of series [21] is L929. As to the kind of experiment: SRB assay, normal cells L929. It is filed as cell-based, mouse. Particulars: read-out: SRB assay IC50.
Procedure: as §1, §2
In series [22] the target is T2, red cell Gardos channel (Mus musculus, UniProt O89109).
T2 construct: host or cells: red cells of SAD mouse
The note with it: oral administration; cited from earlier work.

Series [23] has as its system normal and cancer cell lines. Particulars: cited from earlier work.
For series [24], the system named is MM-RU human melanoma cells. The note with it: SCID mice, daily administration; cited from earlier work.
Series [25] concerns the target T3, Gardos channel (Homo sapiens, UniProt O15554). The arrangement: host or cells: sickle erythrocytes (printed for Clotrimazole only). Particulars: in vitro, sickle erythrocytes; cited from earlier work.
The target of series [26] is T3, Gardos channel. The arrangement: reduces erythrocyte dehydration in patients with sickle cell disease; host or cells: erythrocytes of patients. The note with it: oral therapy; cited from earlier work.

pIC50: −log10 of the molar value. Like-named read-outs stand apart in the source and are kept apart here. A value given as a limit tells only on which side of the number the result lay.

T3 sequence (O15554 whole entry): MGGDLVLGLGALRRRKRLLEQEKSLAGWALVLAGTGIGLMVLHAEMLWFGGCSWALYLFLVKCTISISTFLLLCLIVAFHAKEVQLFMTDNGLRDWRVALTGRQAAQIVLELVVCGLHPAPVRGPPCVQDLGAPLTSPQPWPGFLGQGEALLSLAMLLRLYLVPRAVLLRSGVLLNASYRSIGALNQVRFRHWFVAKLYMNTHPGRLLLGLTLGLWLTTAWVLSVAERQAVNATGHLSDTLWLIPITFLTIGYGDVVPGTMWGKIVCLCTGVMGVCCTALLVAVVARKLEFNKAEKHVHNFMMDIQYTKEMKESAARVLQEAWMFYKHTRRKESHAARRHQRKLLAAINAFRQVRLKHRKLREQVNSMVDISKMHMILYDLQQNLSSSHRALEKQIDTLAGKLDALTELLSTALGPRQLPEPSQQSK
T1 sequence (O15554 whole entry): as above
T2 sequence (O89109 whole entry): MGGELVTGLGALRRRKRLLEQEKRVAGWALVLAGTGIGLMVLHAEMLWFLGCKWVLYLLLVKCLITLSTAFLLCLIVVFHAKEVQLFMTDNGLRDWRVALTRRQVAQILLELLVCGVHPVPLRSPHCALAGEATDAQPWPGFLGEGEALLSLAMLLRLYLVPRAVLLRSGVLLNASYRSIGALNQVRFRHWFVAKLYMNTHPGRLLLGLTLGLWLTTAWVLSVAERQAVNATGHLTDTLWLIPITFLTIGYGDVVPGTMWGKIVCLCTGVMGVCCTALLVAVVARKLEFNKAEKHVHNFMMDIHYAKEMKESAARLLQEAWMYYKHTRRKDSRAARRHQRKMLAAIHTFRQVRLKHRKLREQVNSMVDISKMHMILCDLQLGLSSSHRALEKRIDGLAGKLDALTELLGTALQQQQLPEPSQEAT

With “6-Chloro-3,3-di(4′-chlorophenyl)-2-N-oxime-3,3-diphenylindane [Compound 11]”, the pIC50 (as a rule, the negative decadic logarithm of the IC50, by convention in mol/L) in series [1] (NIH 3T3 mouse fibroblast cells, mitogen-induced proliferation, read-out: Mitogenic Assay IC50) was 5.47; in [3] (HeLa (Cervical), 5% FCS, 5 Day Incubation), 5.29; in [4] (CaSki (Cervical), 5% FCS, 5 Day Incubation), 5.15; in series [5] (MDA-MB-23 (Breast), 5% FCS, 5 Day Incubation) it was less than 5.00; in [6] (MCF7 (Breast), 5% FCS, 5 Day Incubation, read-out: SRB assay IC50), 5.36; in series [7] (A549 (Lung), 5% FCS, 5 Day Incubation, read-out: SRB assay IC50), 5.06. Besides, the pIC50 is 5.23 in series [8] (HTB174 (Lung), 5% FCS, 5 Day Incubation); 5.24 in [9] (HEPG2 (Hepatocel), 5% FCS, 5 Day Incubation, read-out: SRB assay IC50); less than 5.00 in series [10] (DU-145 (Prostate), 5% FCS, 5 Day Incubation); 5.26 in [11] (SK-MEL-28 (Melanoma), 5% FCS, 5 Day Incubation); 5.21 in [12] (MMRU (Melanoma), 5% FCS, 5 Day Incubation, read-out: SRB assay IC50); 5.17 in [13] (HT29 (Colon), 5% FCS, 5 Day Incubation, read-out: SRB assay IC50). Moreover, the pIC50 is 5.18 in series [14] (HCT-15 (Colon), 5% FCS, 5 Day Incubation); less than 5.00 in series [15] (ACHN (Renal), 5% FCS, 5 Day Incubation); less than 5.00 in series [16] (U118MG (CNS), 5% FCS, 5 Day Incubation, read-out: SRB assay IC50); less than 5.00 in series [17]; 5.19 in series [18] (HUVEC (Normal human), 5% FCS, 5 Day Incubation); less than 5.00 in series [19] (GM (Normal human), 5% FCS, 5 Day Incubation). In addition, the negative-log IC50 (pIC50) in series [20] (3T3 (Normal mouse), 5% FCS, 5 Day Incubation) was less than 5.00; in [21] (L929 (Normal mouse), 5% FCS, 5 Day Incubation) it was 5.07. The “Mitogenic Assay Inhibition (%)” value in series [1] (measured at 10 μM compound, NIH 3T3 cells) was determined as 99.0%. Also, the “Gardos Channel Assay Inhibition (%)” value in series [2] (measured at 10 μM compound) is recorded as 50.0%.
Consider `Clc1ccccc1C(c1ccccc1)(c1ccccc1)n1ccnc1` [Clotrimazole], for which the inhibition (commonly the share of the control response that was lost under treatment) at 10 µM in series [1] (Mus musculus, NIH3T3, measured at 10 μM compound, NIH 3T3 cells, read-out: Mitogenic Assay Inhibition (%)) turned out to be 93%; in [2] (read-out: Gardos Channel Assay Inhibition (%)), 99.3%. In addition, in series [22], the “Effect on red cells in SAD mouse” value was “inhibition of the red cell Gardos channel, increased red cell K^+ content, a decreased mean cell hemoglobin concentration (MCHC) and decreased cell density”. Besides, the “Rate of cell proliferation in vitro” value in series [23] is “inhibits the rate of cell proliferation of normal and cancer cell lines in a reversible and dose-dependent manner”. In [24], the “Number of lung metastases” value is recorded as “significant reduction in the number of lung metastases”. In series [25], the “Ca2+-activated K+ transport and cell dehydration in sickle erythrocytes” value is “blocks Ca^2+-activated K^+ transport and cell dehydration in sickle erythrocytes”. Moreover, in series [26], the “Effect in patients with sickle cell disease” value is “induces inhibition of the Gardos channel and reduces erythrocyte dehydration”.
With `O=C1CC(c2ccc(Cl)cc2)(c2ccc(Cl)cc2)c2ccc(Cl)cc21` [Compound 8, 6-Chloro-3,3-di(4-chlorophenyl)indanone], the melting point (in general, the temperature, or range, at which the solid turns liquid) is 134 °C. The pIC50 in [1] (Mus musculus, NIH3T3, read-out: Mitogenic Assay IC50) is 5.70. In addition, in [1] (Mus musculus, NIH3T3, read-out: Mitogenic Assay Inhibition (%)), the inhibition at 10 µM came out at 97%. In series [3] (Homo sapiens, HeLa, 120 h), the pIC50 is less than 5.00. In series [4] (Homo sapiens, Ca-Ski, 120 h), the negative logarithm of the IC50 (pIC50) is 5.17. For the same compound, the pIC50 in [5] (Homo sapiens, 120 h) was less than 5.00. Further, the negative logarithm of the IC50 (pIC50) in series [6] (Homo sapiens, MCF7, 120 h, read-out: SRB assay IC50) is 5.26. In [6] (Homo sapiens, MCF7, read-out: SRB IC50), the negative logarithm of the IC50 (pIC50) was less than 5.00. Also, the pIC50 in [7] (Homo sapiens, A549, 120 h, read-out: SRB assay IC50) was 5.05. Also, the pIC50 in [7] (Homo sapiens, A549, read-out: SRB IC50) is less than 5.00. In addition, the pIC50 in series [8] (120 h) was less than 5.00. Also, the pIC50 in series [9] (Homo sapiens, HepG2, 120 h, read-out: SRB assay IC50) is 5.19. In addition, the pIC50 in series [9] (Homo sapiens, HepG2, read-out: SRB IC50) was 5.11. In series [10] (Homo sapiens, DU-145, 120 h), the pIC50 was less than 5.00. Moreover, in series [11] (Homo sapiens, SK-MEL-28, 120 h), the negative logarithm of the IC50 (pIC50) is less than 5.00. Further, the pIC50 in series [12] (Homo sapiens, 120 h, read-out: SRB assay IC50) was less than 5.00. Besides, the pIC50 in series [12] (Homo sapiens, read-out: SRB IC50) is 5.48. Besides, the pIC50 in series [13] (Homo sapiens, HT-29, 120 h, read-out: SRB assay IC50) is 5.08. The pIC50 in series [13] (Homo sapiens, HT-29, read-out: SRB IC50) is less than 5.00. The pIC50 in [14] (Homo sapiens, HCT-15, 120 h) was less than 5.00. Besides, the pIC50 in series [15] (Homo sapiens, ACHN, 120 h) is less than 5.00. The pIC50 in [16] (Homo sapiens, U-118-MG, 120 h, read-out: SRB assay IC50) was less than 5.00. In addition, the pIC50 in series [16] (Homo sapiens, U-118-MG, read-out: SRB IC50) is less than 5.00. Also, the pIC50 in [18] (Homo sapiens, HUVEC, 120 h) was less than 5.00. In addition, the pIC50 in series [19] (Homo sapiens, 120 h) was less than 5.00. The negative-log IC50 (pIC50) in series [20] (Mus musculus, NIH3T3, 120 h) was less than 5.00. The pIC50 in [21] (Mus musculus, L929, 120 h) is less than 5.00.
